Experimental data: ChEMBL document CHEMBL1201862, “PubChem BioAssay data set” (2004)
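Five compound concentrations were applied to cells in 96-well plates for 48 hours; endpoints were derived by simple linear interpolation of the resulting dose-response curve. GI50: concentration for 50% inhibition of growth.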 Activity calls are given as the source filed them. Cut-off read from the data, not from the text of the source: active = GI50 up to about 1.1 µM and inactive = higher.

How the values were obtained:
Test in all cases: NCI tumour cell line growth inhibition, 48 h
[1] = system: KM-20L2
[2] = system: RXF 631
[3] = system: ACHN
[4] = system: TK-10
[5] = system: CAKI-1
[6] = system: SF-539
[7] = system: SN12C
[8] = system: K562
[9] = system: OVCAR-4
[10] = system: UO-31
[11] = system: CCRF-CEM
[12] = system: SF-295
[13] = system: SK-MEL-2
[14] = system: M19-MEL
[15] = system: NCI-H460
[16] = system: RXF 393
[17] = system: OVCAR-3
[18] = system: RPMI-8226
[19] = system: MOLT-4
[20] = system: SK-OV-3
[21] = system: A549
[22] = system: SR
[23] = system: OVCAR-5
[24] = system: SK-MEL-28
[25] = system: SNB-75
[26] = system: A498
[27] = system: COLO 205
[28] = system: UACC-257
[29] = system: NCI-H23
[30] = system: Malme-3M
[31] = system: U-251
[32] = system: DMS-114
[33] = system: 786-0
[34] = system: M14
[35] = system: SK-MEL-5
[36] = system: DLD-1
[37] = system: EKVX
[38] = system: KM12
[39] = system: UACC-62
[40] = system: HOP-18
[41] = system: HCT-116
[42] = system: NCI-H522
[43] = system: SF-268
[44] = system: NCI-H226
[45] = system: HCC 2998
[46] = system: HOP-92
[47] = system: SNB-78
[48] = system: IGROV-1
[49] = system: LOX IMVI
[50] = system: HT-29
[51] = system: OVCAR-8
[52] = system: SNB-19
[53] = system: HOP-62
[54] = system: SW-620
[55] = system: HL-60
[56] = system: HCT-15
[57] = system: LXFL 529
[58] = system: XF498

## C=C(C=O)[C@@H]1C2OC(=O)C(=C)[C@@H]2CC(O)[C@@]1(C)CC (stereo not given in full)
[1]
  GI50: 12.2 µM (inactive)
[2]
  GI50: 19.2 µM (inactive)
[3]
  GI50: 13.7 µM (inactive)
[4]
  GI50: 15.7 µM (inactive)
[5]
  GI50: 9.38 µM (inactive)
[6]
  GI50: 9.29 µM (inactive)
[7]
  GI50: 10.1 µM (inactive)
[8]
  GI50: 3.27 µM (inactive)
[9]
  GI50: 11.5 µM (inactive)
[10]
  GI50: 21.3 µM (inactive)
[11]
  GI50: 2.08 µM (inactive)
[12]
  GI50: 22.4 µM (inactive)
[13]
  GI50: 13.2 µM (inactive)
[14]
  GI50: 5.48 µM (inactive)
[15]
  GI50: 21.2 µM (inactive)
[16]
  GI50: 2.11 µM (inactive)
[17]
  GI50: 6.71 µM (inactive)
[18]
  GI50: 2.93 µM (inactive)
[19]
  GI50: 2.48 µM (inactive)
[20]
  GI50: > 60.5 µM (inactive)
[21]
  GI50: 32.8 µM (inactive)
[22]
  GI50: 3.4 µM (inactive)
[23]
  GI50: 17.8 µM (inactive)
[24]
  GI50: 3.83 µM (inactive)
[25]
  GI50: > 100 µM (inactive)
[26]
  GI50: 17.1 µM (inactive)
[27]
  GI50: 5.66 µM (inactive)
[28]
  GI50: 11.9 µM (inactive)
[29]
  GI50: 7.23 µM (inactive)
[30]
  GI50: 6.21 µM (inactive)
[31]
  GI50: 11.7 µM (inactive)
[32]
  GI50: 14.8 µM (inactive)
[33]
  GI50: 3.32 µM (inactive)
[34]
  GI50: 4.83 µM (inactive)
[35]
  GI50: 6.78 µM (inactive)
[36]
  GI50: 2.75 µM (inactive)
[37]
  GI50: 18.2 µM (inactive)
[38]
  GI50: 13.1 µM (inactive)
[39]
  GI50: 4.12 µM (inactive)
[40]
  GI50: 26.1 µM (inactive)
[41]
  GI50: 3.78 µM (inactive)
[42]
  GI50: 1.87 µM (inactive)
[43]
  GI50: 23.8 µM (inactive)
[44]
  GI50: 32 µM (inactive)
[45]
  GI50: 16.6 µM (inactive)
[46]
  GI50: 2.33 µM (inactive)
[47]
  GI50: 6.17 µM (inactive)
[48]
  GI50: 10.7 µM (inactive)
[49]
  GI50: 15.8 µM (inactive)
[50]
  GI50: 6.75 µM (inactive)
[51]
  GI50: 4.37 µM (inactive)
[52]
  GI50: 45.2 µM (inactive)
[53]
  GI50: 50.2 µM (inactive)
[54]
  GI50: 3.16 µM (inactive)
[55]
  GI50: 2.25 µM (inactive)
[56]
  GI50: 6.22 µM
[57]
  GI50: 3.08 µM (inactive)

## O=C1c2ccccc2C(=O)c2c1cc(S(=O)(=O)O)c(O)c2O [Alizarin Red S]
[2]
  GI50: > 100 µM (inactive)
[3]
  GI50: > 100 µM (inactive)
[4]
  GI50: > 100 µM (inactive)
[5]
  GI50: > 100 µM (inactive)
[6]
  GI50: > 100 µM (inactive)
[7]
  GI50: > 100 µM (inactive)
[58]
  GI50: 16.7 µM (inactive)
[8]
  GI50: > 100 µM (inactive)
[9]
  GI50: > 100 µM (inactive)
[10]
  GI50: > 100 µM (inactive)
[11]
  GI50: > 100 µM (inactive)
[12]
  GI50: > 100 µM (inactive)
[13]
  GI50: 32.4 µM (inactive)
[14]
  GI50: > 100 µM (inactive)
[15]
  GI50: > 100 µM (inactive)
[16]
  GI50: > 100 µM (inactive)
[17]
  GI50: > 100 µM (inactive)
[18]
  GI50: > 100 µM (inactive)
[19]
  GI50: > 100 µM (inactive)
[20]
  GI50: > 100 µM (inactive)
[21]
  GI50: > 100 µM (inactive)
[22]
  GI50: > 100 µM (inactive)
[23]
  GI50: > 100 µM (inactive)
[24]
  GI50: > 100 µM (inactive)
[25]
  GI50: > 100 µM (inactive)
[26]
  GI50: > 100 µM (inactive)
[27]
  GI50: > 100 µM (inactive)
[28]
  GI50: > 100 µM (inactive)
[29]
  GI50: > 100 µM (inactive)
[31]
  GI50: > 100 µM (inactive)
[32]
  GI50: > 100 µM (inactive)
[33]
  GI50: > 100 µM (inactive)
[34]
  GI50: > 100 µM (inactive)
[36]
  GI50: > 100 µM (inactive)
[37]
  GI50: > 100 µM (inactive)
[38]
  GI50: > 100 µM (inactive)
[39]
  GI50: > 100 µM (inactive)
[41]
  GI50: > 100 µM (inactive)
[42]
  GI50: > 100 µM (inactive)
[43]
  GI50: > 100 µM (inactive)
[44]
  GI50: > 100 µM (inactive)
[45]
  GI50: > 100 µM (inactive)
[46]
  GI50: 90.8 µM (inactive)
[47]
  GI50: > 100 µM (inactive)
[48]
  GI50: > 100 µM (inactive)
[49]
  GI50: > 100 µM (inactive)
[50]
  GI50: > 100 µM (inactive)
[51]
  GI50: > 100 µM (inactive)
[52]
  GI50: > 10 µM (inactive)
[53]
  GI50: > 100 µM (inactive)
[54]
  GI50: > 100 µM (inactive)
[56]
  GI50: > 100 µM
[57]
  GI50: > 100 µM (inactive)
